Measurements as given in article PMC10525135, “Computationally Designed AMPs with Antibacterial and Antibiofilm Activity against MDR Acinetobacter baumannii” (Antibiotics, 2023).
Values after ≈ are worked out from the molar mass of the structure shown. Where two headings read alike, the source gives them in different places. Marks after values point to notes of the source that are not given here. Values belong to the compound of their own block, whether it stands above or below them. Residues, ends and D or L forms follow the SMILES beside them. No end group written: not given here.

Assays:
[1] = system: A. baumannii BAA-1710; format: cell-based, Acinetobacter baumannii
Method: (§1) Minimum inhibitory concentration (n = 3) was performed according to the CLSI protocols with a minor modification, in which Difco Mueller Hinton broth (BD 275730, Franklin Lakes, NJ, USA) was used instead of cation-adjusted Mueller Hinton broth following Wiegand et al.’s standardized protocol for testing AMPs. Bacteria were grown overnight in an opaque colony, and the concentration was determined using McFarland’s technique. An aliquot of 50 µL of 1 × 10^6 CFU/mL of bacteria was incubated with a decreasing series of peptide concentration to achieve a final bacterial concentration of 5 × 10^5 CFU/mL at 37 °C 5% CO2 for 20–24 h in Difco Mueller Hinton broth. Dilutions were performed in a 96-well polypropylene plate (Corning 3879, Corning, NY, USA). This is critical to avoid peptide binding to the plate. Results were obtained by measuring bacterial growth at OD600 nm. LL-37 and polymyxin B were used as positive controls. Samples containing only the medium and medium with peptides were used as the sterility controls and samples containing only bacteria in MHB served as the growth control. Each experiment was performed twice, and one representative experiment is shown.

[2] = system: A. baumannii BAA-1794; format: cell-based, Acinetobacter baumannii
Method: as §1

[3] = system: A. baumannii BAA-1800; format: cell-based, Acinetobacter baumannii
Method: as §1

[4] = system: A. baumannii strains AB5075, BAA-1710, -1794, and -1800; format: cell-based, Acinetobacter baumannii
Method: as §1

[5] = system: A. baumannii BAA-1800 biofilm
Method: The MBIC assay measures the lowest concentration of a compound that inhibits the biofilm formation of an organism. A series of decreasing peptide concentrations starting from 64 μg/mL to 0.25 μg/mL (100 µL) were incubated with 1 × 10^5 CFU of A. baumannii in 100 µL of Tryptic Soy broth (TSB) in a polystyrene 96-well plate (Falcon 353072, Corning, NY, USA) for 24 h at 37 °C to assess biofilm formation inhibition, as described previously with minor modifications. After the incubation of bacteria with AMPs, OD600 nm was measured for approximate bacterial growth. Media were carefully removed, and wells (n = 3) were rinsed with tap water. Plates were heat-fixed at 70 °C for 1 h, and 200 µL of 0.1% crystal violet diluted in deionized water were added to wells and allowed to incubate for 15 min. Excess stain was rinsed off with tap water, and the plates were air-dried. After that, 200 µL of 33% glacial acetic acid was added to resolubilize the stain, and biofilm mass was measured by a spectrophotometric reading at OD590. Bacteria alone (no treatment) served as the 100% biofilm control, and media alone and media with a peptide/drug were used as the sterility control and the 0% biofilm control.

[6] = system: AB5075 pre-formed (24 h) biofilm; format: cell-based, Acinetobacter baumannii
Method: The MBEC assay measures the lowest concentration of an antimicrobial agent that can eradicate established biofilms. Using the MBEC assay in the Biofilm Inoculator 96-well base (Innovotech Cat #1911, Edmonton, AB, Canada) and following the manufacturer’s protocol, 150 µL (n = 6) of 1 × 10^6 CFU/mL of AB5075 in TSB was incubated for 24 h at 37 °C at 110 rpm for biofilm formation. The lid containing pegs was rinsed with sterile PBS for 5 min, and then the lid was placed in a peptide challenge polypropylene 96-well plate containing a decreasing series of drug concentrations and incubated for 24 h at 37 °C at 110 rpm. Pegs were washed three times with tap water, heat-fixed for 70 °C for 1 h, and stained with 0.1% crystal violet for 15 min. Excess stain was rinsed off with tap water and allowed to dry. Stained pegs were resolubilized with 200 µL of 33% glacial acetic acid. OD590 was obtained to measure the remaining biofilm. Pegs with only bacteria served as the growth control and 100% biofilm control. Media alone and media with a peptide/drug served as the sterility controls. […] The experiment was performed twice.

[7] = system: AB5075
Method: Bacteria were grown in 1 mL of MHB for 24 h. Experimental tubes that show growth in the presence of peptide/drug concentration were diluted 1:100. […] Colistin is reported to induce resistance within approximately 5–7 days for A. baumannii.

[8] = system: defibrinated human red blood cells; test: Hemolysis; format: cell-based; conditions: 2% hRBC in PBS, 1 h 37 °C, OD540, relative to Triton X-100, n = 3
Method: To measure the hemolytic activity of peptides, 2% human red blood cells were added to various dilutions of peptide reconstituted in PBS in a sterile U-bottom polypropylene 96-well plate following a protocol developed in our laboratory Briefly, defibrinated human blood was obtained from de-identified healthy donors from BioIVT (Westbury, NY, USA). An aliquot (1 mL) of blood was centrifuged at 1600× g for 10 min and plasma was discarded, and then 1 mL of sterile 1× PBS (HyClone) was used to wash red blood cells at least three times. In the last wash step, the supernatant was discarded, and the pallet was resuspended with 750 µL of sterile PBS. RBC suspension (2% RBC) was prepared by adding 200 µL of washed RBCs to 9.8 mL of sterile 1× PBS. A total of 50 µL of 2% RBCs were added to each well (n = 3) containing diluted peptides, resulting in a final peptide concentration of 100, 10, and 1 μg/mL. A total of 2% RBCs with 1× PBS alone served as the negative control (no peptide), and 2% RBC in Triton X-100 served as the positive control. The plate was incubated for 1 h at 37 °C and then centrifuged at 1000 rpm for 2 min. The supernatant was transferred to a fresh 96-well plate (tissue culture-treated Falcon 353072) and read at OD540. The percentage of hemolysis was calculated based on the 100% hemolysis control (Triton X-100). The experiment was repeated twice.

[9] = system: A. baumannii AB5075 (MRSN959); format: cell-based, Acinetobacter baumannii
Method: as §1

[10] = A. baumannii BAA-1710, Difco Mueller Hinton broth, 5 × 10^5 CFU/mL, 37 °C 5% CO2, 20–24 h, OD600, n = 3
[11] = A. baumannii BAA-1794, Difco Mueller Hinton broth, 5 × 10^5 CFU/mL, 37 °C 5% CO2, 20–24 h, OD600, n = 3
[12] = summary over MDR A. baumannii strains of Table 3
[13] = A. baumannii BAA-1800, TSB, 24 h 37 °C, crystal violet
[14] = A. baumannii BAA-1800, TSB, polystyrene plate, 24 h 37 °C, crystal violet OD590, n = 3
[15] = MBEC100, AB5075 24 h pre-formed biofilm on pegs, 24 h challenge, crystal violet OD590, n = 6
[16] = AB5075 passaged with subinhibitory drug

Compound: FLPWISKFLGKIL-NH2 [HRZN-15]
MIC ([1]; BAA-1710): 4 µg/mL
MIC ([2]; BAA-1794): 4 µg/mL
MIC ([3]; BAA-1800): 4 µg/mL
MIC across the tested strains ([4]; BAA-1710): 4 µg/mL
MBIC50 ([5]; BAA-1800, 24 h): ~ 4 µg/mL
MBIC100 ([5]; BAA-1800, 24 h): 8 µg/mL
MBEC ([6]; 24 h): 16 µg/mL
MBEC50 ([6]; 24 h): 8 µg/mL
MIC at the 10th passage ([7]; AB5075 passaged with peptide): 8 µg/mL

MIC ([1]; BAA-1710): 32 µg/mL
MIC ([2]; BAA-1794): 64 µg/mL
MIC ([3]; BAA-1800): 32 µg/mL
MIC across the tested strains ([4]; BAA-1710): 16 to 64 µg/mL
Compound: FLWRISKFLGRKL-NH2 [HRZN-14]

Compound: CC[C@H](C)[C@H](NC(=O)[C@H](CCCCN)NC(=O)[C@H](CCC(=O)O)NC(=O)[C@H](CCCCN)NC(=O)[C@H](CO)NC(=O)[C@H](CCCCN)NC(=O)[C@H](CCCNC(=N)N)NC(=O)[C@H](Cc1ccccc1)NC(=O)[C@H](Cc1ccccc1)NC(=O)[C@H](CC(=O)O)NC(=O)CNC(=O)[C@H](CC(C)C)NC(=O)[C@@H](N)CC(C)C)C(=O)NCC(=O)N[C@@H](CCCCN)C(=O)N[C@@H](CCC(=O)O)C(=O)N[C@@H](Cc1ccccc1)C(=O)N[C@@H](CCCCN)C(=O)N[C@@H](CCCNC(=N)N)C(=O)N[C@H](C(=O)N[C@H](C(=O)N[C@@H](CCC(N)=O)C(=O)N[C@@H](CCCNC(=N)N)C(=O)N[C@H](C(=O)N[C@@H](CCCCN)C(=O)N[C@@H](CC(=O)O)C(=O)N[C@@H](Cc1ccccc1)C(=O)N[C@@H](CC(C)C)C(=O)N[C@@H](CCCNC(=N)N)C(=O)N[C@@H](CC(N)=O)C(=O)N[C@@H](CC(C)C)C(=O)N[C@H](C(=O)N1CCC[C@H]1C(=O)N[C@@H](CCCNC(=N)N)C(=O)N[C@H](C(=O)N[C@@H](CCC(=O)O)C(=O)N[C@@H](CO)C(=O)O)[C@@H](C)O)C(C)C)[C@@H](C)CC)C(C)C)[C@@H](C)CC [LL-37]
MIC [1, 10]: 32 µg/mL (≈ 7.12 µM)
MIC [2, 11]: 16 to 32 µg/mL
MIC ([2]; A. baumannii BAA-1794, experiment shown in Figure S4): 32 µg/mL (≈ 7.12 µM)
MIC across the tested strains [4, 12]: 8 to 32 µg/mL
MBIC50 [5, 13]: ~ 32 µg/mL
MBIC100 [5, 14]: 64 µg/mL
MBEC50 ([6]; AB5075 24 h pre-formed biofilm, crystal violet): 4 µg/mL
MBEC [6, 15]: ~32 µg/mL
Hemolysis ([8]; 10 µg/mL): 5.4%
Hemolysis ([8]; 100 µg/mL): 22%

MIC ([9]; AB5075 (MRSN959)): 16 µg/mL
MIC ([1]; BAA-1710): 16 µg/mL
MIC ([2]; BAA-1794): 16 µg/mL
MIC ([3]; BAA-1800): 16 µg/mL
MIC across the tested strains ([4]; BAA-1710): 16 µg/mL
Compound: FLKKIWKLLGKLL-NH2 [HRZN-16]

Compound: CC[C@H](C)CCCCC(=O)N[C@@H](CCN)C(=O)N[C@H](C(=O)N[C@@H](CCN)C(=O)N[C@H]1CCNC(=O)[C@H]([C@@H](C)O)NC(=O)[C@H](CCN)NC(=O)[C@H](CCN)NC(=O)[C@H](CC(C)C)NC(=O)[C@@H](CC(C)C)NC(=O)[C@H](CCN)NC1=O)[C@@H](C)O [colistin] (HELM PEPTIDE1{[CC[C@H](C)CCCCC(=O)[*:2]].[Dab].T.[Dab].[Dab].[Dab].[dL].L.[Dab].[Dab].T}$PEPTIDE1,PEPTIDE1,5:R3-11:R2$$$V2.0; N-terminus assumed; bridges inferred)
MIC fold change reached, compared to the initial growth-inhibitory concentration ([7]; AB5075, exposure for 15 days): 512 × MIC
MIC before exposure ([7]; AB5075, initial MIC (passage 0)): 0.5 µg/mL (≈ 0.428 µM)
MIC after the fifth day of exposure [7, 16]: 64 µg/mL
MIC fold change after the fifth day [7, 16]: 128 MIC fold

Compound: FLWRISKFLGKKL-NH2 [HRZN-13]
MIC ([9]; A. baumannii AB5075 (MRSN959), Difco Mueller Hinton broth, 5 × 10^5 CFU/mL, 37 °C 5% CO2, 20–24 h, OD600, n = 3): 32 µg/mL
MIC [1, 10]: 32 µg/mL
MIC [2, 11]: 64 µg/mL
MIC ([3]; A. baumannii BAA-1800, Difco Mueller Hinton broth, 5 × 10^5 CFU/mL, 37 °C 5% CO2, 20–24 h, OD600, n = 3): 64 µg/mL
MIC across the tested strains [4, 12]: 32 to 64 µg/mL
Hemolysis ([8]; 100 µg/mL): 0.7%

MIC ([9]; AB5075 (MRSN959)): 32 µg/mL
MIC ([1]; BAA-1710): 32 µg/mL
MIC ([2]; BAA-1794): 32 µg/mL
MIC ([3]; BAA-1800): 32 µg/mL
MIC across the tested strains ([4]; BAA-1710): 32 µg/mL
Compound: KLWKLLKKLGRLL-NH2 [HRZN-17]

Compound: VRLIVAVRIWRR-NH2 [IDR-1018]
MBIC50 [5, 13]: ~ 32 µg/mL
MBIC100 [5, 14]: >64 * µg/mL
MBEC [6, 15]: >32 µg/mL
